Patent US9034846B2, “Use of cyclodextrin for treatment and prevention of bronchial inflammatory diseases” (UNIVERSITE DE LIEGE, priority 2004, dated 2015)

What was measured:
[1] = system: OVA exposed mice; experiment: Peribronchial inflammation score by histology, OVA mouse model; type: in vivo; conditions: 1, 7.5 and 50 mM, compared to placebo; FIG. 2
Procedure: In order to study modulation of airway inflammation, males BALB/c mice of 6 to 8 weeks old were sensitized by intraperitoneal injection of 10 μg ovalbumin (OVA) (Sigma Aldrich, Schnelldorf, Germany) emulsified in aluminum hydroxyde (AlumInject; Perbio, Erembodegem, Belgium) on days 1 and 8. Mice were subsequently exposed to allergens by daily inhalation of an aerosol of OVA 1%, for 30 minutes, generated by ultrasonic nebulizer (Devilbiss 2000), from day 21 to 27. […] Mice were sacrificed performed on day 28 as previously reported by Cataldo and al in Am. J. Pathol 2002; 161(2):491-498.
After BAL, the thorax was opened and the left main bronchus was clamped. The left lung was excised and frozen immediately at −80° C. for protein and mRNA extraction. The right lung was infused with 4 ml paraformaldehyde 4%, embedded in paraffin and used for histology. Sections of 5 μm thickness were cut off from paraffin and were stained with haematoxylin-eosin. The extent of peribronchial inflammation was estimated by a score calculated by quantification of peribronchial inflammatory cells, as previously described by Cataldo D D, Tournoy K G, Vermaelen K et al. in Am J Pathol 2002; 161(2):491-498. A value of 0 was adjudged when no inflammation was detectable, a value of 1 when there was occasionally inflammatory cells, a value of 2 when most bronchi were surrounded by a thin layer (1 to 5 cells) of inflammatory cells and a value of 3 when most bronchi were surrounded by a thick layer (>5 cells) of inflammatory cells. Since 5-7 randomly selected tissue sections per mouse were scored, inflammation scores are expressed as a mean value and can be compared between groups. After Congo Red staining, the eosinophilic infiltration in the airway walls was quantified by manual count and reported to the perimeter of epithelial basement membrane defining an eosinophilic inflammatory score.

[2] = system: OVA exposed mice; experiment: Bronchoalveolar lavage differential cell counts, OVA mouse model of asthma; type: in vivo; conditions: for Eosinophils (%) in BAL / Epithelial cells (%) in BAL / Lymphocytes (%) in BAL / Macrophages (%) in BAL / Neutrophils (%) in BAL / Total cells (10^4/ml) in BAL: Table 2
Procedure: In order to study modulation of airway inflammation, males BALB/c mice of 6 to 8 weeks old were sensitized by intraperitoneal injection of 10 μg ovalbumin (OVA) (Sigma Aldrich, Schnelldorf, Germany) emulsified in aluminum hydroxyde (AlumInject; Perbio, Erembodegem, Belgium) on days 1 and 8. Mice were subsequently exposed to allergens by daily inhalation of an aerosol of OVA 1%, for 30 minutes, generated by ultrasonic nebulizer (Devilbiss 2000), from day 21 to 27. Mice were subjected to inhalation of β-CD, HP-β-CD HP 1, 7.5, 50 mM and HP-β-CD 50 mM 30 minutes before OVA inhalation. Mice were sacrificed performed on day 28 as previously reported by Cataldo and al in Am. J. Pathol 2002; 161(2):491-498.
Immediately after assessment of airway responsiveness, and 24 hours after the last allergen exposure.
Mices were sacrificed and a bronchoalveolar lavage was performed using 4×1 ml PBS-EDTA 0.05 mM (Calbiochem, Darmstadt, Germany) as previously described by Cataldo D D, Tournoy K G, Vermaelen K et al. in Am J Pathol 2002; 161(2):491-498. Cells were recovered by gentle manual aspiration. After centrifugation of bronchoalveolar fluid (BALF) (1200 rpm for 10 minutes, at 4° C.), the supernatant was frozen at −80° C. for protein assessment and the cell pellet was resuspended in 1 ml PBS-EDTA 0.05 mM. The differential cell counts were performed on cytocentrifuged preparations (Cytospin) after staining with Diff-Quick (Dade, Belgium).

[3] = system: CXCL-1; experiment: CXCL-1 ELISA in lung protein extracts, LPS-induced inflammation model; type: in vivo, mouse; conditions: aerosolized 15 mM, vs placebo, FIG. 13
Procedure: In lipopolysaccharide (LPS)-induced inflammation model, mice were exposed to 3 μg LPS diluted in 100 μl of PBS or PBS (phosphate buffer saline) only administered by direct tracheal instillations at day 1 and 5 of the protocol. Mice were daily exposed either to aerosolized hydroxypropyl-beta-cyclodextrin (15 mM) or PBS for 30 min from day 0 to 5 (6 hours after LPS or sham exposure at days 1 and 5). Mice were sacrificed at day 6.
After sacrifice, thorax was opened and the right lungs were excised and snap frozen in liquid nitrogen for protein extraction. The left lung was insufflated at constant pressure with 4% paraformaldehyde and embedded in paraffin for further histological analysis. A peribronchial inflammation score was applied on each hematoxylin-eosin stained slide as previously reported (Cataldo et al Am J Pathol 2002). A value from 0 to 2 was adjudged to each bronchus. Score of 0 corresponded to bronchi without inflammation; score 1 to occasional mononuclear cells observed around bronchi, and score 2 to 1 to 5 layer(s) of inflammatory cells around bronchi. Six bronchi per mice were counted and statistical analysis was performed by using GraphPad Program. […] ELISA for CXCL-1 on lung protein extracts were assessed using antibodies from R&D Systems and the R&D Duoset® Elisa Development kit (R&D Systems, Minneapolis, Minn., USA).

hydroxypropyl-βcyclodextrin [HP-β-CD]
peribronchial inflammation score [1]: decreased inflammation score
BAL eosinophils ([2]; 1, 7.5 and 50 mM inhalation, FIG. 1): dose dependent decrease
Eosinophils (%) in BAL ([2]; 1 mM): 34.2 ± 7.705 %
Epithelial cells (%) in BAL ([2]; 1 mM): 25.08 ± 3.413%
Lymphocytes (%) in BAL ([2]; 1 mM): 0.48 ± 0.1869%
Macrophages (%) in BAL ([2]; 1 mM): 39.75 ± 5.427%
Neutrophils (%) in BAL ([2]; 1 mM): 0.36 ± 0.1563%
Total cells (10^4/ml) in BAL ([2]; 1 mM): 74.92 ± 14.396 10^4/ml
Eosinophils (%) in BAL ([2]; 10 mM): 27.24 ± 4.98 %
Epithelial cells (%) in BAL ([2]; 10 mM): 34.44 ± 3.723%
Lymphocytes (%) in BAL ([2]; 10 mM): 0.21 ± 0.08571%
Macrophages (%) in BAL ([2]; 10 mM): 37.114 ± 3.878%
Neutrophils (%) in BAL ([2]; 10 mM): 0.83 ± 0.5838%
Total cells (10^4/ml) in BAL ([2]; 10 mM): 114.43 ± 33.245 10^4/ml
Eosinophils (%) in BAL ([2]; 50 mM): 12.18 ± 4.366 %
Epithelial cells (%) in BAL ([2]; 50 mM): 45.04 ± 5.534%
Lymphocytes (%) in BAL ([2]; 50 mM): 0.12 ± 0.12%
Macrophages (%) in BAL ([2]; 50 mM): 41.86 ± 9.043%
Neutrophils (%) in BAL ([2]; 50 mM): 0.72 ± 0.3992%
Total cells (10^4/ml) in BAL ([2]; 50 mM): 37.33 ± 10.683 10^4/ml
BAL eosinophil counts ([2]; after allergen exposure, inhalation at 50 mM, FIG. 1): significantly decreased
Other inflammatory cells in the BAL ([2]; after inhalation, compared to placebo): not present in different amounts
Levels of CXCL-1 in lung protein extracts [3]: significantly decreased
